In patent publication US20060286624A1, “Method for identifying selective growth inhibitors” (priority 2003, published 2006):

Legend:
[1] = test system: MSSA (sensitive strain) co-seeded with MRSA (resistant strain); assay: Co-seeded agar plate assay (Assay Protocol A), MSSA sensitive / MRSA resistant strain; type: cell-based, Staphylococcus aureus; conditions: co-seeding ratio 500:1, 10 μL in DMSO, 37° C., 12 to 18 hours
Description: Each of a pair of bacterial strains, one sensitive and one resistant to a particular antibacterial agent, was grown by inoculating 25 mL of LB broth (i.e., 10 g of tryptone, 5 g of yeast extract, and 10 g NaCl per liter of water) with 1 to 5 colonies in an Erlenmeyer flask, and then holding the mixture overnight at a temperature of 37° C. while agitating the mixture via rotary shaking (200 rpm). Each batch was allowed to cool to room temperature (about 25° C.). Following OD measurements at λ=600 nm to ensure that both strains have grown to similar densities (i.e., a variation of 10% or less), a sample from the batch of the “sensitive” strain was diluted 10-fold in LB growth medium, and a sample of the “resistant” strain was diluted 500-fold or more to provide a final ratio (i.e., co-seeding ratio) of 50 or more sensitive cells to 1 resistant cell. A 750 μL sample of each of the diluted strains was then mixed into 20 mL of molten agar/growth medium agar (melt temperature=48° C.) (KD Medical's Cat. No. BLF-7070) and poured into rectangular 8.5×12.5 cm Omnitray dishes (Nalge NUNC Intl. Cat No. 242811). Wells were cast by applying custom-made pins (about 3 mm in diameter and 5 mm deep; Nalge NUNC Intl.) into the surface of the molten mixture (48 or 96 pins arrayed over the 8.5×12.5 cm surface) and then allowing the mixture to harden to provide an assay plate. Test samples dissolved in DMSO were added to the wells, after which the assay plate was incubated at 37° C. for a time sufficient to allow visual detection of cell colonies (i.e., 12 to 18 hours). The plates were then examined for zones of growth and inhibition under ambient light.
The tests set forth in Table 1 were conducted in the manner described in Assay Protocol A, except that in the case of the streptomycin-resistant strain, the inoculated liquid growth medium also contained 25 ug/mL of streptomycin in order to ensure that resistance was not lost during growth.

[2] = test system: MRSA (sensitive strain) co-seeded with CRMRSA (resistant strain); assay: Co-seeded agar plate assay (Assay Protocol A), MRSA sensitive / CRMRSA resistant strain; type: cell-based, Staphylococcus aureus; conditions: co-seeding ratio 100:1, 10 μL in DMSO, 37° C., 12 to 18 hours
Description: (§1) Each of a pair of bacterial strains, one sensitive and one resistant to a particular antibacterial agent, was grown by inoculating 25 mL of LB broth (i.e., 10 g of tryptone, 5 g of yeast extract, and 10 g NaCl per liter of water) with 1 to 5 colonies in an Erlenmeyer flask, and then holding the mixture overnight at a temperature of 37° C. while agitating the mixture via rotary shaking (200 rpm). Each batch was allowed to cool to room temperature (about 25° C.). Following OD measurements at λ=600 nm to ensure that both strains have grown to similar densities (i.e., a variation of 10% or less), a sample from the batch of the “sensitive” strain was diluted 10-fold in LB growth medium, and a sample of the “resistant” strain was diluted 500-fold or more to provide a final ratio (i.e., co-seeding ratio) of 50 or more sensitive cells to 1 resistant cell. A 750 μL sample of each of the diluted strains was then mixed into 20 mL of molten agar/growth medium agar (melt temperature=48° C.) (KD Medical's Cat. No. BLF-7070) and poured into rectangular 8.5×12.5 cm Omnitray dishes (Nalge NUNC Intl. Cat No. 242811). Wells were cast by applying custom-made pins (about 3 mm in diameter and 5 mm deep; Nalge NUNC Intl.) into the surface of the molten mixture (48 or 96 pins arrayed over the 8.5×12.5 cm surface) and then allowing the mixture to harden to provide an assay plate. […]

[3] = test system: S-eEF2 (sensitive strain) co-seeded with HS-eEF2 (resistant strain); assay: Co-seeded agar plate assay (Assay Protocol B), S-eEF2 sensitive / HS-eEF2 resistant yeast strain; type: cell-based, Saccharomyces cerevisiae; conditions: co-seeding ratio 50:1, DMSO solution, overnight at 29° C.
Description: Assay Protocol B The S. cerevisiae yeast strains, S-eEF2 and HS-eEF2, were each grown overnight from a single colony in 5 mL YPAD (i.e., 1% yeast extract, 2% peptone, 0.004% adenine sulfate, and 2% glucose) in an Erlenmeyer flask at 29° C. with shaking on a roller drum. The sensitive strain S-eEF2 was diluted with additional YPAD to give a final absorbance at λ=600 nm of 0.01 (control =YPAD), and the resistant strain HS-eEF2 was diluted to an absorbance at λ=600 nm of 0.0002. Each strain (5 mL) was added to a glass test tube containing 25 mL of molten YPAD agar equilibrated at 50° C. The mixture was then stirred briefly and poured onto sterile disposable 86×128-mm plastic dishes (NUNC Cat. No. 242811). The dishes were cooled for 5 minutes at room temperature, dried in a hood, and then stored for no more than 2 days until ready for treatment with test substances. Test substances were dissolved in the appropriate solvent and a suitable portion of the solution was spotted on the co-seeded plates. The plates were incubated overnight at 29° C., and then inspected visually for the appearance of zones of growth and inhibition, and particularly for the appearance of resistant colonies capable of growing in the presence of the test substances.
The tests set forth in Table 2 were conducted in the manner described in Assay Protocol B.

[4] = test system: ATCC 9637 (sensitive strain) co-seeded with MB941 (resistant strain); assay: Co-seeded agar plate assay (Assay Protocol A), ATCC 9637 sensitive / MB941 resistant strain; type: cell-based, E. coli; conditions: co-seeding ratio 1000:1, 10 μL in DMSO, 37° C., 12 to 18 hours
Description: as §1

[5] = test system: DH5 (sensitive strain) co-seeded with pKS-DH5 (resistant strain); assay: Co-seeded agar plate assay (Assay Protocol A), DH5 sensitive / pKS-DH5 resistant strain; type: cell-based, Escherichia coli; conditions: Run 6, FIG. 3; co-seeding ratio 500:1; 100 mg/mL, 10 μL in DMSO; 37° C., 12 to 18 hours
Description: as §1

## O=C(N[C@H](CO)[C@H](O)c1ccc([N+](=O)[O-])cc1)C(Cl)Cl [chloramphenicol]
[1]; Run 1, FIG. 1A, 100 μg/mL
  zone of growth inhibition (appearance, resistant colonies): visually contains no resistant colonies
[2]; Run 5, FIG. 2B, 1 mg/mL
  zone of growth inhibition (appearance, resistant colonies): zone of no growth containing isolated colonies of resistant bacteria

## CO[C@H]1[C@@H](O)[C@H](O)[C@H](OC[C@@]23C[C@@H]4[C@H](C)CC[C@H]4[C@@]4(C=O)CC2C=C(C(C)C)[C@@]34C(=O)O)O[C@@H]1C [sordarin]
[3]; Run 10, FIG. 5B, 2 μg spotted
  zone of growth inhibition (appearance, resistant colonies): zone of growth inhibition in which resistant colonies are present

## [H]/N=C(/N)N[C@H]1[C@H](O)[C@@H](O)[C@H](O[C@@H]2O[C@@H](C)[C@](O)(C=O)[C@H]2O[C@@H]2O[C@@H](CO)[C@H](O)[C@@H](O)[C@@H]2NC)[C@@H](N/C(N)=N\[H])[C@@H]1O [streptomycin]
[1]; Run 2, FIG. 1B, 1 mg/mL
  zone of growth inhibition (appearance, resistant colonies): a few colonies at or near the border of the inhibition zone
[4]; Run 8, FIG. 4B, 500 μg/mL
  zone of growth inhibition (appearance, resistant colonies): zone of no growth containing isolated colonies of resistant bacteria

## CC1(C)S[C@@H]2[C@H](NC(=O)[C@H](N)c3ccccc3)C(=O)N2[C@H]1C(=O)O [ampicillin]
[5]
  zone of growth inhibition (appearance, resistant colonies): isolated resistant colonies within a zone that otherwise exhibits no growth

## CO[C@@]1(NC(=O)Cc2cccs2)C(=O)N2C(C(=O)O)=C(COC(N)=O)CS[C@@H]21 [cefoxitin]
[1]; Run 3, FIG. 1C, 500 μg/mL
  zone of growth inhibition (appearance, resistant colonies): a multitude of resistant colonies throughout the inhibition zone

## O=C(O)c1cn(C2CC2)c2cc(N3CCNCC3)c(F)cc2c1=O [ciproflaxin, ciprofloxacin]
[2]; Run 4, FIG. 2A, 50 μg/mL
  zone of growth inhibition (appearance, resistant colonies): clear zone of no growth

## CC(=O)O[C@@H]1C[C@]23C4=CC[C@@]5(C)[C@H](C(=O)O)[C@@](C)([C@H](C)C(C)C)CC[C@]5(C)[C@H]4CC[C@H]2[C@@](C)(COC3O)[C@H]1O[C@@H]1O[C@H](CO)[C@@H](O)[C@H](O)[C@H]1O (stereo partly shown) [enfumafungin]
[3]; Run 9, FIG. 5A, 0.2 μg spotted
  zone of growth inhibition (appearance, resistant colonies): visually clear zone exhibiting no growth of either the sensitive or the resistant strain

## CN(C)[C@@H]1C(O)=C(C(N)=O)C(=O)[C@@]2(O)C(O)=C3C(=O)c4c(O)cccc4[C@@](C)(O)[C@H]3C[C@@H]12 [tetracylin, tetracyclin]
[4]; Run 7, FIG. 4A, 1 mg/mL
  zone of growth inhibition (appearance, resistant colonies): clear zone of no growth
